Experimental data reported in patent US8182837B2, “Methods and compositions for reducing the risk associated with the administration of opioid analgesics in patients with diagnosed or undiagnosed respiratory illness” (QRxPharma Limited, priority 2003, dated 2012).
Where two headings read alike, the source gives them in different places.

Columns and labels:
[1] = P=0.033; of borderline clinical significance
[2] = cited from earlier work; for lower threshold for an initial dosage resulting in production of analgesia: naive human adult

SMILES	difference mean, pre-treatment VAS greater than steady-state VAS [1] [cm]	lower threshold for an initial dosage resulting in production of analgesia ([2]; intravenous route)	lower threshold for an initial dosage resulting in production of analgesia ([2]; oral route) [mg every four hours]	analgesic potency relative to morphine (as a function of mass of dose) ([2]; in vivo)
CN1CC[C@]23c4c5ccc(O)c4O[C@H]2[C@@H](O)C=C[C@H]3[C@H]1C5 [Morphine, morphine]	1.2	4-5 mg every four hours	30	–
COc1ccc2c3c1O[C@H]1C(=O)CC[C@@]4(O)[C@@H](C2)N(C)CC[C@]314 [oxycodone]	–	–	10	about 1.5 times
